Laboratory results from patent US20220143222A1, “SUBCUTANEOUS AND INTRAMUSCULAR ADMINISTRATION OF PYRAZINE COMPOUNDS” (MediBeacon Inc., priority 2020, published 2022).

Tests used:
[1] = MB-102 pig plasma concentration after intramuscular dosing; type: in vivo; details: pig 09801, IM, 3.2 mpk
Description: Juvenile Yorkshire pigs weighing approximately 25 kg were anesthetized, their body temperature stabilized, and an IV port surgically placed. A region approximately half-way along the line between the hip and knee joint was selected as the injection site and prepared by cleaning the skin and removing any exposed hair by shaving the selected area at least twice. Similarly, the site where two Quantum Leap fluorescent sensors (disclosed in U.S. Pat. No. 10,548,521) were to be positioned (chest) was prepared by washing and shaving. After the skin was dry the sensors were attached with commercially available skin adhesive and background skin auto-fluorescence measurements were recorded. After about 20 minutes of background fluorescence collection the subject animal was dosed either intravenously (animal 48019) or subcutaneously (animals 52771, 53701 09802, or 1539) or intramuscularly (09801) with PBS-1× formulated MB-102 at 3.2 mg/kg. Injection of the appropriate volume took place over about a minute. […] At this point glomerular elimination of MB-102 by the kidneys led to a decrease of fluorescence signal over time. Blood samples (1.5 mL) were taken immediately prior to the introduction of MB-102 (0 minutes) and at 15 minute intervals throughout the procedure. Blood was collected in BD vacutainer K2EDTA tubes, spun to plasma and stored at −80° C. until analyzed. Subsequently, the processed plasma samples were thawed, diluted with PBS-1× and analyzed by HPLC or UPLC and the concentration of MB-102 determined using standard analytical techniques. Further details for each animal are provided in the examples that follow.
Experimental animal Yorkshire pig, 09801, was subject to Intramuscular (IM) administration of MB-102 using substantially the same procedure as Example 8, but substituting a 2 mL syringe equipped with a single 13 mm×27 g needle. […] Blood sampling and processing was as described in Example 8 and the results (Table 1) are plotted in FIG. 6.

[2] = Storage of concentrated MB-102 salt solution at 4° C. (precipitation); type: physicochemical; details: sodium salt, 300 mg per mL water (w/v), 4° C. overnight
Experimental: MB-102 (0.300 g, 0.81 mmol), was placed in a vial (4.0 mL). Water was added (0.8 mL, D.I.) and the mixture sonicated for a brief period of time. To the mixture was added aqueous 6.25 N NaOH (2 equivalents, 1.62 mmol, 0.24 mL, added in portions; 0.020 mL×12 to effect solution) with stirring and brief periods of sonication. […] The final concentration was 300 mg (2R,2′R)-2,2′-((3,6-diaminopyrazine-2,5-dicarbonyl)bis(azanediyl))bis(3-hydroxypropanoic acid), MB-102 per mL water (w/v).
MB-102 (0.30 g, 0.81 mmol) was weighed into a 5 mL v-vial equipped with a Teflon-covered magnetic spin vane. Choline hydroxide in water (Aldrich, 0.43 g of 46 wt %, 1.62 mmol) was added portion-wise with stirring until a solution was obtained. The total weight of the solution was 0.73 g or 64.2 wt % MB-102 di-choline salt (MW: 578.6).

Nc1nc(C(=O)N[C@H](CO)C(=O)O)c(N)nc1C(=O)N[C@H](CO)C(=O)O [MB-102, 3,6-diamino-2,5-bis{N-[(1R)-1-carboxy-2-hydroxyethyl]carbamoyl}pyrazine]
concentration at 15 min ([1]; Yorkshire, plasma, intramuscular, 3.2 mg/kg, 15 min, read-out: MB-102 Pig Plasma Conc.): 10000 ng/mL | concentration at 30 min ([1]; Yorkshire, plasma, intramuscular, 3.2 mg/kg, 30 min, read-out: MB-102 Pig Plasma Conc.): 8130 ng/mL | concentration at 45 min ([1]; Yorkshire, plasma, intramuscular, 3.2 mg/kg, 45 min, read-out: MB-102 Pig Plasma Conc.): 6240 ng/mL | concentration at 60 min ([1]; Yorkshire, plasma, intramuscular, 3.2 mg/kg, 60 min, read-out: MB-102 Pig Plasma Conc.): 5030 ng/mL | concentration at 75 min ([1]; Yorkshire, plasma, intramuscular, 3.2 mg/kg, 75 min, read-out: MB-102 Pig Plasma Conc.): 3920 ng/mL | concentration at 90 min ([1]; Yorkshire, plasma, intramuscular, 3.2 mg/kg, 90 min, read-out: MB-102 Pig Plasma Conc.): 3370 ng/mL | concentration at 105 min ([1]; Yorkshire, plasma, intramuscular, 3.2 mg/kg, 105 min, read-out: MB-102 Pig Plasma Conc.): 2720 ng/mL | concentration at 120 min ([1]; Yorkshire, plasma, intramuscular, 3.2 mg/kg, 120 min, read-out: MB-102 Pig Plasma Conc.): 2130 ng/mL | concentration at 135 min ([1]; Yorkshire, plasma, intramuscular, 3.2 mg/kg, 135 min, read-out: MB-102 Pig Plasma Conc.): 1800 ng/mL | concentration at 150 min ([1]; Yorkshire, plasma, intramuscular, 3.2 mg/kg, 150 min, read-out: MB-102 Pig Plasma Conc.): 1510 ng/mL | concentration at 165 min ([1]; Yorkshire, plasma, intramuscular, 3.2 mg/kg, 165 min, read-out: MB-102 Pig Plasma Conc.): 1340 ng/mL | concentration at 180 min ([1]; Yorkshire, plasma, intramuscular, 3.2 mg/kg, 180 min, read-out: MB-102 Pig Plasma Conc.): 1110 ng/mL | concentration at 195 min ([1]; Yorkshire, plasma, intramuscular, 3.2 mg/kg, 195 min, read-out: MB-102 Pig Plasma Conc.): 946 ng/mL | concentration at 210 min ([1]; Yorkshire, plasma, intramuscular, 3.2 mg/kg, 210 min, read-out: MB-102 Pig Plasma Conc.): 841 ng/mL | concentration at 225 min ([1]; Yorkshire, plasma, intramuscular, 3.2 mg/kg, 225 min, read-out: MB-102 Pig Plasma Conc.): 686 ng/mL | concentration at 240 min ([1]; Yorkshire, plasma, intramuscular, 3.2 mg/kg, 240 min, read-out: MB-102 Pig Plasma Conc.): 578 ng/mL | concentration at 255 min ([1]; Yorkshire, plasma, intramuscular, 3.2 mg/kg, 255 min, read-out: MB-102 Pig Plasma Conc.): 520 ng/mL | concentration at 270 min ([1]; Yorkshire, plasma, intramuscular, 3.2 mg/kg, 270 min, read-out: MB-102 Pig Plasma Conc.): 434 ng/mL | concentration at 285 min ([1]; Yorkshire, plasma, intramuscular, 3.2 mg/kg, 285 min, read-out: MB-102 Pig Plasma Conc.): 373 ng/mL | concentration at 300 min ([1]; Yorkshire, plasma, intramuscular, 3.2 mg/kg, 300 min, read-out: MB-102 Pig Plasma Conc.): 333 ng/mL | concentration at 315 min ([1]; Yorkshire, plasma, intramuscular, 3.2 mg/kg, 315 min, read-out: MB-102 Pig Plasma Conc.): 298 ng/mL | concentration at 330 min ([1]; Yorkshire, plasma, intramuscular, 3.2 mg/kg, 330 min, read-out: MB-102 Pig Plasma Conc.): 261 ng/mL | concentration at 345 min ([1]; Yorkshire, plasma, intramuscular, 3.2 mg/kg, 345 min, read-out: MB-102 Pig Plasma Conc.): 222 ng/mL | concentration at 360 min ([1]; Yorkshire, plasma, intramuscular, 3.2 mg/kg, 360 min, read-out: MB-102 Pig Plasma Conc.): 203 ng/mL | SUM (plasma conc. over time) ([1]; 15-360 min): 794,162 ng/mL*min | precipitate formation on storage [2]: no precipitate formation
